Measurements taken from ChEMBL document CHEMBL1201862, “PubChem BioAssay data set” (2004).
Calls of active or inactive are those of the source.

What was measured:
[1] = molecular target: Voltage-dependent T-type calcium channel subunit alpha-1H (Homo sapiens, UniProt O95180); type: functional;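 also: channel activity triggered by adding a high calcium stimulation buffer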
[2] = molecular target: Alkaline phosphatase, placental type (Homo sapiens, UniProt P05187); test: PLAP enzyme inhibitors, confirmation, biochemical, luminescence (AID 1512); type: functional
Sequence of Alkaline phosphatase, placental type (P05187 whole entry): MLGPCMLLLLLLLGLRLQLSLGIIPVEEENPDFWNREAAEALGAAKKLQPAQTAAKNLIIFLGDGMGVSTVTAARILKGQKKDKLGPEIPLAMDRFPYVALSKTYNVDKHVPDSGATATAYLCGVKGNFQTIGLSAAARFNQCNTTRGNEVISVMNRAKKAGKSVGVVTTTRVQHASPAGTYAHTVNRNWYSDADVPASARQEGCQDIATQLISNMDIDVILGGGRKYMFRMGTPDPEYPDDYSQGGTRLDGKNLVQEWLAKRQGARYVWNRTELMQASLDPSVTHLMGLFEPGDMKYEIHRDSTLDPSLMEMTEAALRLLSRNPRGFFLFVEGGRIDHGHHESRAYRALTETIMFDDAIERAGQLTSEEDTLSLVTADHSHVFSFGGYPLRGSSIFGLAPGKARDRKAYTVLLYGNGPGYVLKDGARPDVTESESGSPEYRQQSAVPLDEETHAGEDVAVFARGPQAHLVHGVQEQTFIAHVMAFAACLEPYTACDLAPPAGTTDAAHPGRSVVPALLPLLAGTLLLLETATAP

[3] = molecular target: T1, Alkaline phosphatase, tissue-nonspecific isozyme (Homo sapiens, UniProt P05186); test: human TNAP enzyme inhibitors, SAR follow-up, biochemical, luminescent, dose response (AID 1056)
T1 sequence (P05186 whole entry): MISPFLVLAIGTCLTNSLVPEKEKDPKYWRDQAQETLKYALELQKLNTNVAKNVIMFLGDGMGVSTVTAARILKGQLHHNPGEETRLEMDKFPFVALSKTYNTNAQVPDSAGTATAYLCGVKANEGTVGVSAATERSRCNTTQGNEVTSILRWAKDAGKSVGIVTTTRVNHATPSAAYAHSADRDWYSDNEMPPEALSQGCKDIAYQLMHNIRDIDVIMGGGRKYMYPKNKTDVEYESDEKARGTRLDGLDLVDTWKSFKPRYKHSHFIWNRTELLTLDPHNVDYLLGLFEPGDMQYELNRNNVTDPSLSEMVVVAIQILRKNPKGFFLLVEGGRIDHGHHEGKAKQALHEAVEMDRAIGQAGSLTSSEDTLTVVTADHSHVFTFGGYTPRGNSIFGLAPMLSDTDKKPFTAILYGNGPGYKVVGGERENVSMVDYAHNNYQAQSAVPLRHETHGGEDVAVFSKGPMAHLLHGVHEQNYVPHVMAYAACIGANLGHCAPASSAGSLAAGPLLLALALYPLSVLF

[4] = molecular target: T2, Type-1 angiotensin II receptor (Homo sapiens, UniProt P30556); test: AT1 receptor agonists, dose response, selectivity assay for APJ receptor agonist project, cell-based, uHTS hits (AID 488865); type: functional;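 also: beta-arrestin recruitment to AT1 measured by enzyme fragment complementation luminescence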
T2 sequence (P30556 whole entry): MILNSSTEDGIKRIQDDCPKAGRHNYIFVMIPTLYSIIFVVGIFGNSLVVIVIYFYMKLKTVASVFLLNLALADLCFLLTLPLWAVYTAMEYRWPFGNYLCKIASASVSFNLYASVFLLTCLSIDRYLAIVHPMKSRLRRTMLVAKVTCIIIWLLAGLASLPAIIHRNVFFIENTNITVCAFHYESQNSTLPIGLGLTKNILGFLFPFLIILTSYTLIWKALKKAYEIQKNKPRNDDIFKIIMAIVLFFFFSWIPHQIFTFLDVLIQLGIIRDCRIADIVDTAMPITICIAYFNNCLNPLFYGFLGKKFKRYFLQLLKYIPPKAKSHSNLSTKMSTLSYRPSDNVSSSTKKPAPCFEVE

[5] = molecular target: DNA dC->dU-editing enzyme APOBEC-3A (Homo sapiens, UniProt P31941); test: Dose Response confirmation of small molecule APOBEC3A DNA Deaminase Inhibitors via a fluorescence-based single-stranded DNA deaminase assay. [Related pubchem assays (depositor defined):AID493011, AID493024]; type: functional
Sequence of DNA dC->dU-editing enzyme APOBEC-3A (P31941 whole entry): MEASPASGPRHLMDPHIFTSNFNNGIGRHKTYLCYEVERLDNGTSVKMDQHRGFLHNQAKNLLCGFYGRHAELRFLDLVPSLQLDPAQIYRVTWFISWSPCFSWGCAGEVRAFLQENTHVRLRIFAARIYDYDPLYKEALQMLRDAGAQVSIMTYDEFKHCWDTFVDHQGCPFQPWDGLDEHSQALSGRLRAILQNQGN

[6] = molecular target: DNA dC->dU-editing enzyme APOBEC-3G (Homo sapiens, UniProt Q9HC16); type: functional;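 also: Dose-response counterscreen measuring inhibition of APOBEC3G DNA deaminase activity, run while confirming APOBEC3A inhibitors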
Sequence of DNA dC->dU-editing enzyme APOBEC-3G (Q9HC16 whole entry): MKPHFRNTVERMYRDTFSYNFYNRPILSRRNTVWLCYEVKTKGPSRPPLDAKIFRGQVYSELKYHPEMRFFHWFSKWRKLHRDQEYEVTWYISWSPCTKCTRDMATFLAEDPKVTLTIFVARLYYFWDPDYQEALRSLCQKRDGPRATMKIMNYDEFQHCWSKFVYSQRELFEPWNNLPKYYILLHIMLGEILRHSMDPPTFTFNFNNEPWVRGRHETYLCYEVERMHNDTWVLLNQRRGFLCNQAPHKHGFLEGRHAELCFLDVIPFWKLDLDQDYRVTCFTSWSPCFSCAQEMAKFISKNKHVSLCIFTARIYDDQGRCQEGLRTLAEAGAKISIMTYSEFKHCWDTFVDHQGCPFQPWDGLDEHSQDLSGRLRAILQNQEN

[7] = THP-1 cell cytotoxicity, dose response, cytotoxicity control for non-replicating M. tuberculosis project (AID 489025); type: functional
[8] = HepG2 cell cytotoxicity, dose response, cytotoxicity control for non-replicating M. tuberculosis project (AID 489018); type: functional; conditions: Mycobacterium tuberculosis
[9] = Vero E6 cell cytotoxicity, dose response, cytotoxicity control for non-replicating M. tuberculosis project, secondary assay (AID 492998); type: functional, VeroE6; conditions: Vero C1008
cells = type: functional
[10] = microbe, parasite or virus in culture; type: functional; conditions: Mycobacterium tuberculosis
Vero = test: cells; type: functional; conditions: Chlorocebus sabaeus
CAAX prenyl protease 2 = molecular target: T3, CAAX prenyl protease 2 (Saccharomyces cerevisiae S288c, UniProt Q03530); type: biochemical
T3 sequence (Q03530 whole entry): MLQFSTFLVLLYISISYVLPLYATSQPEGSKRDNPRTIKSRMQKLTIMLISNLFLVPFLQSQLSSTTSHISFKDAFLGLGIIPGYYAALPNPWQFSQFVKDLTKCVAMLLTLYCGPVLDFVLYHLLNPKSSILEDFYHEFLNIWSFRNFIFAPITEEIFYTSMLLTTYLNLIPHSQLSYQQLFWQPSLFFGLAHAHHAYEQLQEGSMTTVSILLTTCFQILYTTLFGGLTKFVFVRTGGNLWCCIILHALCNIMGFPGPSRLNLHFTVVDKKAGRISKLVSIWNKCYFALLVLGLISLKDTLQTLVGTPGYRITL

Hexokinase = molecular target: T4, Hexokinase (Trypanosoma brucei, UniProt Q38C41); test: Confirmation assay for inhibitors of Trypanosoma brucei hexokinase 1-Analogue-first series. [Related pubchem assays (depositor defined):AID1430, AID1632, AID2516, AID2560, AID2579, AID2600, AID449725, AID492951]; type: functional
T4 sequence (Q38C41 whole entry): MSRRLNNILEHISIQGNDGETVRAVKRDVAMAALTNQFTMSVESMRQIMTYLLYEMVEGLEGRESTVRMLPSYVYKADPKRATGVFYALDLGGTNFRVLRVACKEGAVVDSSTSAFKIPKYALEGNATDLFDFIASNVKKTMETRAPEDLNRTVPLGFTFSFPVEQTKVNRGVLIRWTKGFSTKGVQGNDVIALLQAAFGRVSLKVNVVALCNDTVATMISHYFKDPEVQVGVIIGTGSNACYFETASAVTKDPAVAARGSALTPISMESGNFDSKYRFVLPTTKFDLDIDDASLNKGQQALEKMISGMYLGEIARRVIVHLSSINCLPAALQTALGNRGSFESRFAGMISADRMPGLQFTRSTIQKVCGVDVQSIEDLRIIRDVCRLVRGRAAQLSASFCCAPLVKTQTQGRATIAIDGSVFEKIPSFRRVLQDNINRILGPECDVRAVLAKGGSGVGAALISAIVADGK

[11] = molecular target: T5, Carboxy-terminal domain RNA polymerase II polypeptide A small phosphatase 1 (Homo sapiens, UniProt Q9GZU7); test: inhibitors of CTDSP1, concentration-response testing, biochemical assay, absorbance-based, actives from ultra-high-throughput screening (AID 540297); type: functional
T5 sequence (Q9GZU7 whole entry): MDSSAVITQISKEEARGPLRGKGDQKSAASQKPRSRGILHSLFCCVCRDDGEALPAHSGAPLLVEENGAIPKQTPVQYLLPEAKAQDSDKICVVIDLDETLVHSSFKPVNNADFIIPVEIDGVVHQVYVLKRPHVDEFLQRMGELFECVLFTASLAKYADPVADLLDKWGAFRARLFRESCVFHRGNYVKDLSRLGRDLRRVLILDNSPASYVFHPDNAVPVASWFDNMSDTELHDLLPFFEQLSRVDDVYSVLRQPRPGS

[12] = molecular target: T6, Phosphoethanolamine/phosphocholine phosphatase (Homo sapiens, UniProt Q8TCT1); test: SAR assay for compounds that inhibit PHOSPHO1. [Related pubchem assays (depositor defined):AID1545, AID1565, AID1574]
T6 sequence (Q8TCT1 whole entry): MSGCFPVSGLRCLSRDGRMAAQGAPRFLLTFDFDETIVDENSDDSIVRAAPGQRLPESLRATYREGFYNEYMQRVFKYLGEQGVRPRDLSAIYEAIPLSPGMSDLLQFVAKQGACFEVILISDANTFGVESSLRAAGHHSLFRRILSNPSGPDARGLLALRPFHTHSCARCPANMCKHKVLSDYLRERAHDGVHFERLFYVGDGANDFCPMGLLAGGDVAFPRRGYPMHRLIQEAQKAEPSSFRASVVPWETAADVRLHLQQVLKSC

[13] = tested on: Streptococcus sp. 'group A'; test: growth inhibition of control SK(-) GAS strain, dose response, counter-screen for streptokinase expression inhibitor project, luminescence, kanamycin, BacTiterGlo, confirmation (AID 1900); type: functional, organism-based
Streptokinase A = molecular target: T7, Streptokinase A (Streptococcus pyogenes serotype M1, UniProt P10520); test: S. pyogenes streptokinase expression inhibitors, potency, dose response, plasminogen activation absorbance, OD405 (AID 1914); type: functional, Streptococcus pyogenes M1 GAS;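 also: secreted streptokinase activity via plasminogen activation per viability signal from cell pellet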
T7 sequence (P10520 whole entry): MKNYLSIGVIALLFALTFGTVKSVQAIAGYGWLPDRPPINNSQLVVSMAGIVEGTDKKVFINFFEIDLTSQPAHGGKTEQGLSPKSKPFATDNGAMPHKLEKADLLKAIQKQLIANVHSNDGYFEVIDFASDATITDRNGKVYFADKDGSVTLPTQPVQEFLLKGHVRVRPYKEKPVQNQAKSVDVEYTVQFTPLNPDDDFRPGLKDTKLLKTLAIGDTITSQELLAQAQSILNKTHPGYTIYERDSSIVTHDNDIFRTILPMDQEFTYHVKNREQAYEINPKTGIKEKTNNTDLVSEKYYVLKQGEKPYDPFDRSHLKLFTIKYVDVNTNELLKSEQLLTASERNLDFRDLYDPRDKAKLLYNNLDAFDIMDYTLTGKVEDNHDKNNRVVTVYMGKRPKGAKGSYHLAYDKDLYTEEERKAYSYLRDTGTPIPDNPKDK

Streptococcus = test: Group A Streptococcus viability loss, dose response, counter-screen for streptokinase expression inhibitor project, luminescence, BacTiterGlo (AID 1915); type: functional, organism-based;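 also: potency for reduction of bacterial viability or growth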
[14] = molecular target: Neurotensin receptor type 1 (Homo sapiens, UniProt P30989); type: functional;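 also: Image-based confirmatory dose-response assay measuring agonist activity at NTR1; NTR1-expressing U2OS osteosarcoma cells imaged for beta-arrestin GFP spot formation; agonist potency where compounds increase beta-arrestin recruitment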
Sequence of Neurotensin receptor type 1 (P30989 whole entry): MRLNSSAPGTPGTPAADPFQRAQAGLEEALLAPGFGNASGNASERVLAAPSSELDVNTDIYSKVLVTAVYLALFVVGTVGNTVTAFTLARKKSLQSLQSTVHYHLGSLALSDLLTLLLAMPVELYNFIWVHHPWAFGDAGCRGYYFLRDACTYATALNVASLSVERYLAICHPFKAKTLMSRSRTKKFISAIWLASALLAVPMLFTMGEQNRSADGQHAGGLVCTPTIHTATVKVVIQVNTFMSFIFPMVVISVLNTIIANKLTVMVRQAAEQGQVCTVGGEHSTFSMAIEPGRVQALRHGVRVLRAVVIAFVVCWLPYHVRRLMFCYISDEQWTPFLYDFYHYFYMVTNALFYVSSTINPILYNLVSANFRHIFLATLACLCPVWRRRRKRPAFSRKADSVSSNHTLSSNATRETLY

[15] = molecular target: T8, Microphthalmia-associated transcription factor (Homo sapiens, UniProt O75030); test: TRPM1 promoter luciferase signal decrease, dose response, MITF inhibitor project, cell-based, SK-MEL-5, cherry-picked, set 3 (AID 493073); type: functional
T8 sequence (O75030 whole entry): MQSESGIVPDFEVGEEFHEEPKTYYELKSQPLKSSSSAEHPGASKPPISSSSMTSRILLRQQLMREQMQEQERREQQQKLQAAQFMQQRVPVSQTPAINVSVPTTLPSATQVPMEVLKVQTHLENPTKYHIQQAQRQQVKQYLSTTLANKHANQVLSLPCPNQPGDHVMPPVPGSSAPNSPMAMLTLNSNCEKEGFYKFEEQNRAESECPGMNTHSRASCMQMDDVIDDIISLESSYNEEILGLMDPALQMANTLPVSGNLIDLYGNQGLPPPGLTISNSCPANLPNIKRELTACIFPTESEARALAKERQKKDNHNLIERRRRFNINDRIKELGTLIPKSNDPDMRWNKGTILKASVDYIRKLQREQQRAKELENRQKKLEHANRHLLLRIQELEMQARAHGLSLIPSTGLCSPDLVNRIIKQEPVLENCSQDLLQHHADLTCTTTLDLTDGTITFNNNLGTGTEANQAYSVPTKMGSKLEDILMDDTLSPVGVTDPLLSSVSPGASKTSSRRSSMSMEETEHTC

Sequence of Voltage-dependent T-type calcium channel subunit alpha-1H (O95180 whole entry): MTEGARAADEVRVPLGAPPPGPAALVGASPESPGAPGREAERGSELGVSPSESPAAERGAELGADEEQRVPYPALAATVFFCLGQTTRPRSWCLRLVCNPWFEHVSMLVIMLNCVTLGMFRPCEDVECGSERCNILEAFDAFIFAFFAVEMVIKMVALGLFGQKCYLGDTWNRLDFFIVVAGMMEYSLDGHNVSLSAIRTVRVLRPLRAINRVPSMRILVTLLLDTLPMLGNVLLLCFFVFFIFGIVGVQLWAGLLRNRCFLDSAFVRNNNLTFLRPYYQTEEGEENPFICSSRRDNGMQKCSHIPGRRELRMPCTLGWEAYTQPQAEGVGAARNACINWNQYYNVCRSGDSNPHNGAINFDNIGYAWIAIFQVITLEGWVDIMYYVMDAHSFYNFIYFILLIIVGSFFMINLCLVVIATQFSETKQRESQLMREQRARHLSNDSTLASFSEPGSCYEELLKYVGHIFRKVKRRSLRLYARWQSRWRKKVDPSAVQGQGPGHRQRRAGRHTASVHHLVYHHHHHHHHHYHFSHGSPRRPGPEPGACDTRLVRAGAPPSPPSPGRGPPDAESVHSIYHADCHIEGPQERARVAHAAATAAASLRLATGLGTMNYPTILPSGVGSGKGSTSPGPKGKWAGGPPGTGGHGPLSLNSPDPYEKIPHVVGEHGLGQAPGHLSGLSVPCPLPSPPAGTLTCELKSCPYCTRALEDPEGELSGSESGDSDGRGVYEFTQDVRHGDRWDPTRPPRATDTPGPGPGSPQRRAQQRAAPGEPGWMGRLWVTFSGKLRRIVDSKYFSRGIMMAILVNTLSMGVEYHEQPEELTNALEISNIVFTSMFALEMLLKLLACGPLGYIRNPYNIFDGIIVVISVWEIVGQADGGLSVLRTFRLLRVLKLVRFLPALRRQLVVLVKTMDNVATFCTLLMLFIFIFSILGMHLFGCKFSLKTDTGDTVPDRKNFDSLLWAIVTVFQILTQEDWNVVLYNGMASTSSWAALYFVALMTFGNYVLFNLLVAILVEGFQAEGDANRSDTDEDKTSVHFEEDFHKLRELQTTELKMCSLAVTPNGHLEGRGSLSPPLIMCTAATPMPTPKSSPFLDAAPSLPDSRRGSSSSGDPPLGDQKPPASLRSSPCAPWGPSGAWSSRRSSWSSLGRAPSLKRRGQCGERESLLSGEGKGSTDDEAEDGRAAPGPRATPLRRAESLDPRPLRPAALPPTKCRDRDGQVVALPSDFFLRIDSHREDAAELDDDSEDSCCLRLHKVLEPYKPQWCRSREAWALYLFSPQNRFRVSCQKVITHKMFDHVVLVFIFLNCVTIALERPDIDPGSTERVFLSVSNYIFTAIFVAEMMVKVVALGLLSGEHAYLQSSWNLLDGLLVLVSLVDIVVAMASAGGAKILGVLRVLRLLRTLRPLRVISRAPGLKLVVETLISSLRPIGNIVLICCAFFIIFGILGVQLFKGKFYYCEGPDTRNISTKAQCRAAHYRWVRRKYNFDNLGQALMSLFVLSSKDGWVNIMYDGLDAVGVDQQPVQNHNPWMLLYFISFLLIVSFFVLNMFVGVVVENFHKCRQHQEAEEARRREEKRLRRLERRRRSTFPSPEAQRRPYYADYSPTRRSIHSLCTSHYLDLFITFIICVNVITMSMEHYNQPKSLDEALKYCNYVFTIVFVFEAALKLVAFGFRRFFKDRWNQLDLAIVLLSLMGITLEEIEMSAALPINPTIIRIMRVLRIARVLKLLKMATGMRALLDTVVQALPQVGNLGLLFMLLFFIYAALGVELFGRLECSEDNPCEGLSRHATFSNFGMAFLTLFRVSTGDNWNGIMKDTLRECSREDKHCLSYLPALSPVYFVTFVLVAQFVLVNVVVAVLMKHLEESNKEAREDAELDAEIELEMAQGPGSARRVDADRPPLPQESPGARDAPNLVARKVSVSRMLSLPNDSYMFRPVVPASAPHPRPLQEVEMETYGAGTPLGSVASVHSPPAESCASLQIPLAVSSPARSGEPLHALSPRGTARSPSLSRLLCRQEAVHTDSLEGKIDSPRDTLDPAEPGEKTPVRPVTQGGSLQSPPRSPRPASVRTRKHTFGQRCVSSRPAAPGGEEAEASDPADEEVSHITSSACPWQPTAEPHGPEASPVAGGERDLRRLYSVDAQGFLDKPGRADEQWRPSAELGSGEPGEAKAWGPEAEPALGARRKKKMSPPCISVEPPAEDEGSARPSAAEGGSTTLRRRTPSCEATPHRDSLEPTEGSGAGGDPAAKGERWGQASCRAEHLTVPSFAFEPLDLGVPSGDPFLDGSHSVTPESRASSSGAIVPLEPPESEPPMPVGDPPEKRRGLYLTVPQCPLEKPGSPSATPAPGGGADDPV

## COc1ccc(CNC(=O)CSCc2cnn(-c3ccccc3)c2-n2cccc2)cc1
[1]
  EC50: 4.8 µM (active)

## COc1ccccc1-c1nc(SCC(=O)c2ccc(O)c(O)c2)n[nH]1
[2]
  IC50: 14.8 µM (active)
[3]
  IC50: 3.34 µM (active)

## Cc1cccc2sc(N(CCCN(C)C)C(=O)c3ccc(S(=O)(=O)N4CCc5ccccc5C4)cc3)nc12
[4]
  EC50: > 100 µM (inactive)

## Cc1ccc(NC(=O)C2CCCN2C(=O)c2cccs2)c(C)c1 (stereo unspecified)
[5]
  IC50: 3.76 µM (active)
[6]
  IC50: 6.6 µM (active)

## O=[N+]([O-])c1ccc2[nH]c(-c3ccccn3)nc2c1
[7]
  CC50: 13.4 µM (active)
[8]
  CC50: 17.4 µM (active)
[9]
  CC50: 14.8 µM (active)
cells
  IC50: 42.1 µM (active)

## CCNc1nc(NC(C)(C)C)nc(N2CCCCC2)n1
[10]
  CC50: 13.4 µM (active)
[7]
  CC50: > 40 µM (active)
[8]
  CC50: > 20 µM (active)
cells
  IC50: 28.8 µM (active)
Vero
  CC50: > 25 µM (active)

## O=C(COC(=O)c1ccccc1Cc1ccccc1)NC1CCS(=O)(=O)C1 (stereo unspecified)
CAAX prenyl protease 2
  AC50: 4.52 µM (active)

## COc1ccc(F)cc1S(=O)(=O)Nc1ccc2ccccc2c1
[2]
  IC50: > 100 µM (inactive)
[3]
  IC50: > 100 µM (inactive)

## COc1ccccc1CC(=O)Nc1ccc2c(C)cc(=O)oc2c1
CAAX prenyl protease 2
  AC50: 34.5 µM (active)

## CCn1c(SCC(=O)c2ccc(OC)cc2)nnc1-c1ccccc1
[2]
  IC50: > 100 µM (inactive)
[3]
  IC50: > 100 µM (inactive)

## Cc1ccc(NC(=O)CSc2nnc(Cc3cccn3C)n2-c2ccc(F)cc2)cc1
[1]
  EC50: 3.49 µM (active)

## O=C(NCc1ccccc1)n1sc2ccccc2c1=O
Hexokinase
  IC50: 4.44 µM (active)

## Cc1ccc(S(=O)(=O)N2CCCC(NC(=O)N3CCN(c4ccccc4)CC3)C2)cc1 (stereo unspecified)
[1]
  EC50: 8.79 µM (active)

## COC(=O)c1ccc(Cl)cc1NS(=O)(=O)c1ccc(OC)cc1
Hexokinase
  IC50: > 25 µM (inactive)

## COc1cc(/C=C/c2cccc[n+]2C)ccc1OCC(=O)Nc1cccc(Cl)c1
[5]
  IC50: 2.83 µM (active)
[6]
  IC50: 2.95 µM (active)
[11]
  IC50: 18.9 µM (active)

## O=C(NCc1ccccc1CN1CCCCC1)c1ccccc1N1CCCC1=O
[5]
  IC50: 4.48 µM (active)
[6]
  IC50: 4.58 µM (active)

## COc1ccc(-n2sc3cc(F)ccc3c2=O)cc1
[12]
  IC50: 5.42 µM (inactive)

## N#CC1=C(c2ccccc2)/C(=C/c2ccccc2)OC1=O
[13]
  EC50: 10.6 µM (active)
Streptokinase A
  EC50: 2.38 µM (active)
[10]
  CC50: 24.1 µM (active)
Streptococcus
  EC50: > 150 µM (not active)
[7]
  CC50: > 40 µM (active)
[9]
  CC50: > 20 µM (active)
[14]
  EC50: 6.66 µM (active)
[15]
  AC50: 4.25 µM (active)
cells
  IC50: 10 µM (active)

## CCOc1ccc(C(=O)Nc2cc(Cl)ccc2C(=O)O)cc1
Hexokinase
  IC50: 20.7 µM (active)
